One block for each compound: values may come before it.
Columns and labels:
[1] = Serum concentration following oral administration in men (pharmacokinetic experiments); assay type: in vivo
Protocol: NNC 0756 (80 mg) and another dopamine D1 receptor antagonist, the compound of Example 4 (25 mg), were administered to two and three men, respectively. Serum concentrations of the compounds were measured 1.5 and 6.0 hours following oral administration of the compound of Example 4 and 1.5 and 8.0-8.8 hours following oral administration of NNC 0756.

[2] = background statement, no test described; cited from earlier work
dopamine D1 receptor [3] = settings: preclinical, rat; cited from earlier work
dopamine D1 receptor [4] = settings: preclinical, rat; cited from earlier work; remark: listed apart in the source

serum concentration of the compound of Example 4 relative to the serum concentration measured 1.5 hours after drug administration ([1]; 25 mg oral, three men, 6 hours after administration vs 1.5 hours): about 10%
elimination time compared to NNC 0756 ([1]; compared to the kinetic profile of NNC 0756): shorter elimination time
SMILES: CN1CCc2cc([N+](=O)[O-])c(O)cc2C(c2cccc3c2OCC3)C1 (single isomer, unassigned; (+)) [Example 4, (+)-5-(2,3-dihydrobenzofuran-7-yl)-7-hydroxy-3-methyl-8-nitro-2,3,4,5-tetrahydro-1H-3-benzazepine]

serum concentration of NNC 0756 relative to the serum concentration measured 1.5 hours after administration ([1]; 80 mg oral, two men, 8.0-8.8 hours after administration vs 1.5 hours): about 35%
SMILES: CN1CCc2cc(Cl)c(O)cc2C(c2cccc3c2OCC3)C1 (single isomer, unassigned; (+)) [NNC 0756, (+)-8-chloro-7-hydroxy-3-methyl-5-(2,3-dihydrobenzofuran-7-yl)-2,3,4,5-tetrahydro-1H-3-benzazepine]
half life [2]: relatively long half life
REM and non-REM sleep (dopamine D1 receptor [3]): increase in both REM and non-REM sleep
time spent in sleep (dopamine D1 receptor [3]): markedly enhance the time spent in sleep

SMILES: Oc1cc2c(cc1O)C(c1ccccc1)CNCC2 (centres unmarked) [SKF 38393]
amount of REM sleep (dopamine D1 receptor [4]): reduced the amount of REM sleep
duration of wakefulness (dopamine D1 receptor [4]): increased the duration of wakefulness

From patent US6211173A, “Use of 2,3,4,5-tetrahydro-1H-3-benzazepines for the manufacture of a pharmaceutical composition for the treatment of sleep disorders” (Cenes Limited, priority 1997, dated 2001)
